Results reported in article PMC12192976, “Unique Structural Features Relate to Evolutionary Adaptation of Cytochrome P450 in the Abyssal Zone” (International Journal of Molecular Sciences, 2025).
Blank lines part the entries; values can stand above or below the molecule they belong to.

Key:
C. armatus CYP51 [1] = target: T1, C. armatus CYP51 (Coryphaenoides armatus, UniProt Z9AQN8BZD8); experiment: Reconstituted sterol 14α-demethylation, steady-state (Michaelis–Menten) kinetics; conditions: 0.25 µM P450, 1 µM CPR, 1 min reaction, 37 °C; for kcat: sterol 3.12−37.5 µM
T1 sequence (Z9AQN8BZD8 6-449 limits assumed): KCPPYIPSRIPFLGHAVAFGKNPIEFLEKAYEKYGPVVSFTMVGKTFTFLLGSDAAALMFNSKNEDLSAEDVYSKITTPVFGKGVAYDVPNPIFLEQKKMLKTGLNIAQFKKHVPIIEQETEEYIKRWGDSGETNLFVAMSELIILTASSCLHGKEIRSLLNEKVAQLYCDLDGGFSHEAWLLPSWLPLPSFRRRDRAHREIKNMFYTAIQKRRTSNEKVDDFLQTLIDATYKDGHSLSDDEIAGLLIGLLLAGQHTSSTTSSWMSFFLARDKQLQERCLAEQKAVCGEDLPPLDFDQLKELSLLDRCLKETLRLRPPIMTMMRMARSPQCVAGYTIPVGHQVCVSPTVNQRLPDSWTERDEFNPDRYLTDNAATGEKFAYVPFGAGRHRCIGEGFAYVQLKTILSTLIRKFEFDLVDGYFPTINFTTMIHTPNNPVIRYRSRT
Method: (§1) The samples were preincubated for 3 min at 37 °C in a shaking water bath, and the reaction was initiated by the addition of 100 μM NADPH and stopped by the extraction of sterols with ethyl acetate. The extracted sterols were dried, dissolved in 100 µL of methanol, and the products were analyzed by reversed-phase HPLC equipped with a β-RAM detector (INUS Systems) using a Nova-Pak 3.9 mm × 150 mm (4 μm) octadecylsilane (C18) HPLC column. The products were separated with an isocratic mobile phase composed of acetonitrile and methanol (4:1 (v/v)) at a flow rate of 0.75 mL/min [9]. Michaelis–Menten parameters were calculated using GraphPad Prism. The kcat and Km values for each reaction were determined by fitting the data to a Michaelis–Menten hyperbola, with the reaction rates (nmol product formed/nmol P450/min) being plotted versus total substrate concentration.

C. armatus CYP51 [2] = target: T1, C. armatus CYP51; experiment: Spectral titration of C. armatus CYP51 with sterol substrates (type I response); conditions: P450 2 µM; for Kd: read-out: Kd (apparent spectral dissociation constant, sterol substrate), titration step 0.25 µM; for Spin State Transition in the Heme Iron: sterol 0.25−3 µM, 22 °C
Method: Equal amounts of the HPCD solution were added to the reference cuvette to correct for the solvent-induced spectral perturbations, and the difference spectra were taken in the wavelength range of 350–500 nm. […] The apparent spectral dissociation constants (Kd) were calculated in GraphPad Prism software, as described, for human CYP51 [22].

C. armatus CYP51 [3] = target: T1, C. armatus CYP51; experiment: Stabilization of C. armatus CYP51 by TMAO (CO-binding spectra after overnight storage)
Method: Absorption spectra (270–700 nm) were recorded at 22 °C using a dual-beam Shimadzu UV-2600i spectrophotometer and UVProbe2.71 software. The P450 concentration was determined from the Soret band absorbance in the absolute spectrum, with the extinction coefficient 117 mM^−1 cm^−1 for the low-spin ferric form or 91 mM^−1 cm^−1 for the reduced (ferrous) carbon monoxide (CO) complex in the difference spectra. The spin state of the P450 samples was estimated from the absolute spectra using the ratio (ΔA393–470/ΔA417–470), with values of 0.35 and 2.0 corresponding to 100% low- and 100% high-spin iron, respectively.
After data collection the crystals were dissolved in phosphate buffered saline (PBS, Gibco, Billings, MT, USA). UV-visible absolute absorption spectra (270–700 nm) were recorded at room temperature using a NanoVue,4282 single beam spectrophotometer (CE Healthcare, Cardiff, UK) (Figure S4A). CO-binding difference absorption spectra (400–500 nm) were recorded using a dual-beam Shimadzu UV-2600i spectrophotometer as follows. The CO gas was bubbled through the protein solution, which was then divided into two cuvettes serving as a blank and standard, respectively. The baseline was taken, and a few crystals of […] were added to the sample cuvette (Figure S4B). […]

human CYP51 [4] = system: human CYP51; parameters: method as in PMID 27313059; conditions: cited from earlier work
human CYP51 [5] = target: human CYP51; parameters: method as in PMID 27313059; conditions: read-out: apparent dissociation constant (Kd), azole ligand; cited from earlier work
C. armatus CYP51 [6] = target: T1, C. armatus CYP51
Method: as §1

C. armatus CYP51 [7] = target: T1, C. armatus CYP51; experiment: Spectral titration with azole-based ligands (type II response)
Method: Equal amounts of the HPCD solution were added to the reference cuvette to correct for the solvent-induced spectral perturbations, and the difference spectra were taken in the wavelength range of 350–500 nm. […] Titrations with azole-based compounds were carried out at 0.5 µM P450 concentration in 5 cm optical path length cuvettes. Aliquots of 0.1 mM compounds dissolved in dimethyl sulfoxide (DMSO) were added to the sample cuvette, with each titration step being 0.1 µM. At each step, the corresponding volume of DMSO was added to the reference cuvette. The apparent spectral dissociation constants (Kd) were calculated in GraphPad Prism software, as described, for human CYP51 [22].

C. armatus CYP51 [8] = target: T1, C. armatus CYP51; experiment: Inhibition of reconstituted lanosterol 14α-demethylation, 1 h reaction; conditions: enzyme/inhibitor/substrate 1:50:50, 60 min
Method: as §1

[9] = read-out: apparent dissociation constant (Kd), azole ligand, P450 0.5 µM, titration step 0.1 µM

SMILES: C=C(CC[C@@H](C)C1CC[C@@]2(C)C3=C(CC[C@]12C)[C@@]1(C)CC[C@H](O)C(C)(C)C1CC3)C(C)C (stereo partly shown)
Km (C. armatus CYP51 [1]): 13 ± 0.9 µM
kcat (C. armatus CYP51 [1]): 1.03 ± 0.0383 s⁻¹
Kd (C. armatus CYP51 [2]): 1020 ± 40 nM
Spin State Transition in the Heme Iron (C. armatus CYP51 [2]): 27%

SMILES: C=C(CC[C@@H](C)[C@H]1CC[C@@]2(C)C3=C(CC[C@]12C)[C@@]1(C)CC[C@H](O)[C@@H](C)[C@@H]1CC3)C(C)C [Obtusifoliol, obtusifoliol]
Km (C. armatus CYP51 [1]): 7.9 ± 0.6 µM
kcat (C. armatus CYP51 [1]): 0.865 ± 0.03 s⁻¹
Kd (C. armatus CYP51 [2]): 560 ± 30 nM
Spin State Transition in the Heme Iron (C. armatus CYP51 [2]): 13%

SMILES: C[N+](C)(C)[O-] [TMAO, Trimethylamine oxide]
spectral response in the C. armatus CYP51 heme iron (in words) (C. armatus CYP51 [3]): does not cause any spectral response
P450 recovery after overnight incubation (CO-binding spectra) (C. armatus CYP51 [3]; 10 mM TMAO, overnight storage at 4 °C in PBS): 90%

SMILES: CC(=O)N1CCN(c2ccc(OCC3COC(Cn4ccnc4)(c4ccc(Cl)cc4Cl)O3)cc2)CC1 (stereo not shown) [ketoconazole]
lanosterol converted in presence of inhibitor (human CYP51 [4]; human CYP51, 50-fold molar excess of inhibitor, 1 h reaction): 100%
Kd (human CYP51 [5]): 70 nM
Kd (C. armatus CYP51 [7]; [9]): 10 nM

SMILES: C[C@@H](c1ncncc1F)[C@](O)(Cn1cncn1)c1ccc(F)cc1F [voriconazole]
inhibitory effect on the C. armatus CYP51 activity (in words) (C. armatus CYP51 [8]): did not have any inhibitory effect
Kd (human CYP51 [5]): 2530 nM
Kd (C. armatus CYP51 [7]; [9]): 610 nM

More lines, main results first:

Km (C. armatus CYP51 [1]): 8.1 ± 1.1 µM
kcat (C. armatus CYP51 [1]): 0.797 ± 0.0317 s⁻¹
Kd (C. armatus CYP51 [2]): 770 ± 40 nM
Spin State Transition in the Heme Iron (C. armatus CYP51 [2]): 22%
SMILES: CC(C)=CCC[C@@H](C)[C@H]1CC[C@@]2(C)C3=C(CC[C@]12C)[C@@]1(C)CC[C@H](O)C(C)(C)[C@@H]1CC3 [Lanosterol]

inhibition of CYP51 activity (C. armatus CYP51 [6]): 93%
Kd (C. armatus CYP51 [7]): 20 nM
SMILES: O=C(N[C@@H](Cn1ccnc1)c1ccc(-c2ccc(F)cc2)cc1F)c1ccc(-c2nnc(-c3ccccc3)o2)cc1 [VFV, (R)-N-(1-(3,4′-difluorobiphenyl-4-yl)-2-(1H-imidazol-1-yl)ethyl)-4-(5-phenyl-1,3,4-oxadiazol-2-yl)benzamide]
inhibition of CYP51 activity (human CYP51 [4]; human CYP51, enzyme/inhibitor/substrate 1:50:50, 60 min): 64%
Kd (human CYP51 [5]): 90 nM

inhibitory effect on the C. armatus CYP51 activity (in words) (C. armatus CYP51 [8]): did not have any inhibitory effect
SMILES: N#Cc1ccc(COc2ccc(C#Cc3ccc(C(F)(F)[C@](O)(Cn4cnnn4)c4ccc(F)cc4F)nc3)cc2)cc1 [VT-1598]

inhibitory effect on the C. armatus CYP51 activity (in words) (C. armatus CYP51 [8]): did not have any inhibitory effect
SMILES: C[C@@H](c1nc(-c2ccc(C#N)cc2)cs1)[C@](O)(Cn1cncn1)c1cc(F)ccc1F [isavuconazole]

inhibitory effect on the C. armatus CYP51 activity (in words) (C. armatus CYP51 [8]): did not have any inhibitory effect
Kd (C. armatus CYP51 [7]; [9]): 620 nM
SMILES: CCC(C)n1ncn(-c2ccc(N3CCN(c4ccc(OCC5COC(Cn6cncn6)(c6ccc(Cl)cc6Cl)O5)cc4)CC3)cc2)c1=O (stereo not shown) [itraconazole]
Kd (human CYP51 [5]): 1290 nM

inhibitory effect on the C. armatus CYP51 activity (in words) (C. armatus CYP51 [8]): did not have any inhibitory effect
SMILES: O[C@@](Cn1cnnn1)(c1ccc(F)cc1F)C(F)(F)c1ccc(-c2ccc(OCC(F)(F)F)cc2)cn1 [oteseconazole]

inhibitory effect on the C. armatus CYP51 activity (in words) (C. armatus CYP51 [8]): did not have any inhibitory effect
SMILES: CC[C@@H]([C@H](C)O)n1ncn(-c2ccc(N3CCN(c4ccc(OC[C@@H]5CO[C@@](Cn6cncn6)(c6ccc(F)cc6F)C5)cc4)CC3)cc2)c1=O [posaconazole]
